Experimental data taken from PubChem BioAssay (NCI).
Values joined by “and” are separate entries in the source; they are usually repeats but may differ in a detail not shown here. Identical values can stand only once.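 Dose response: 5 concentrations. Exposure: 48 h. Format: 96-well plates. Endpoint: linear interpolation; highest concentration if not reached. Here, GI50 denotes the concentration required for 50% inhibition of growth. TGI is the concentration that stops growth completely.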

system: CAKI-1 renal; assay: inhibition of tumour cell growth, NCI panel, 48 h

For `COc1ccc(CNc2nc(NCc3ccc(OC)c(OC)c3)nc(NC3CCCCC3)n2)cc1`, which TGI is on record?
The TGI was greater than 100 µM.

Which results are given for `Cc1c2cnccc2c(C)c2c1c1ccccc1n2CCCN`?
GI50: 0.779 µM and 0.295 µM; TGI: 1.9 µM and 1.41 µM

For `O=C(CCC(=O)c1ccc(Cl)cc1)NO`, which TGI is on record?
The TGI was greater than 100 µM.

How did the TGI turn out when `COc1c(C)c(C/C=C(\C)CCCCO[Si](c2ccccc2)(c2ccccc2)C(C)(C)C)c(OC)c(OC)c1OC` was run?
Its TGI is 48.1 µM.

Which TGI does the source give for `COc1ccc(C2c3cc4c(cc3OC(NNS(=O)(=O)c3ccc(C)cc3)C2C)OCO4)cc1` (centres undefined) here?
Its TGI is greater than 100 µM.

For `C[C@@]12C[C@@H](c3ccccc3O1)N1CCCCSC1=N2`, which TGI is on record?
Its TGI is greater than 100 µM.

For `c1ccc(N=C2SC3=Nc4cccc5cccc(c45)N3C2=Nc2ccccc2)cc1`, which TGI is on record?
The TGI was greater than 100 µM.

How did the TGI turn out when `Cc1nc(C(N)=S)sc1/C(CC(=O)C(=O)Nc1cccc2ccc(O)cc12)=N\NC(=O)c1ccncc1` was run?
Its TGI is greater than 100 µM.

Which TGI does the source give for `Cc1cc(O)c2c(=O)c3ccccc3[nH]c2c1` here?
The TGI was 90.6 µM.

`Oc1cc2c3c(c1)c1cc4c(cc1c[n+]3CC2)OCO4` was tested. Which TGI did it give?
The TGI was greater than 50.3 µM.

Which TGI does the source give for `Nc1cccc2cc(Cl)cnc12` here?
The TGI was greater than 100 µM.

With `C=C1c2nc3ccccc3n2C=C(c2ccccc2)N1c1ccc([N+](=O)[O-])cc1` as the compound, how does the TGI read?
Its TGI is 24 µM.

With `Cc1ccccc1-n1c(=O)c2ncn(CCCl)c2n(-c2ccccc2C)c1=S` as the compound, how does the TGI read?
The TGI was greater than 100 µM.

system: NCI-H23 lung; assay: inhibition of tumour cell growth, NCI panel, 48 h

Which TGI does the source give for `O=c1[nH][nH]c(=O)n1Cc1ccccc1Cn1c(=O)[nH][nH]c1=O` here?
The TGI was greater than 100 µM.

For `CCOC(=O)c1c2ccccc2n2c(N)c(C(N)=O)nnc12`, which TGI is on record?
The TGI was 66.2 µM.

For `O=C(NNC(=O)c1ccccc1SSc1ccccc1C(=O)NNC(=O)c1ccccc1S)c1ccccc1S`, which TGI is on record?
The TGI was 62.2 µM.

`CCOC(=O)C(NC(C)=O)(Nc1ccc(F)cc1)C(F)(F)F` (centres undefined) was tested. Which TGI did it give?
The TGI was greater than 100 µM.

How did the TGI turn out when `O=C1/C(=C/c2ccc(O)cc2)CC/C1=C\c1ccc(O)cc1` was run?
Its TGI is greater than 100 µM.

`CC(C)C1/C(=N/O)CC(c2ccccc2)N(N=O)C1c1ccccc1` (centres undefined) was tested. Which TGI did it give?
The TGI was greater than 100 µM.

`COc1cc(/C=C2\S/C(=N/Nc3nc(-c4ccc(Br)cc4)cs3)NC2=O)cc(OC)c1OC` was tested. Which TGI did it give?
The TGI was 25.7 µM.

`COC(=O)[C@H]1CO[C@@H](C(C)(C)C)N1C(=O)N1C=CC(=O)C[C@@H]1C` was tested. Which TGI did it give?
Its TGI is greater than 100 µM.

Which TGI does the source give for `CCC1(O)CC2CC(=O)OC2C1O` (centres undefined) here?
The TGI was greater than 100 µM.

For `Cc1ccc(SCC(CSCCO)OCn2cnc3c2NC(N)=NC32OCCO2)cc1` (centres undefined), which TGI is on record?
The TGI was greater than 100 µM.

With `Oc1cccc2c(Cl)ccnc12` as the compound, how does the TGI read?
Its TGI is 26.2 µM.

Which TGI does the source give for `N#CC1=C(N)N(c2ccccc2)C(c2ccco2)C1(C#N)C#N` (centres undefined) here?
Its TGI is 38.9 µM.

For `NC(=O)C(c1ccccc1)N1OC2C(=O)N(c3ccccc3)C(=O)C2C1c1c2ccccc2c(Cl)c2ccccc12` (centres undefined), which TGI is on record?
The TGI was greater than 100 µM.

Which TGI does the source give for `CC(C)c1ccc(/C=C2/C=C(c3ccc4ccccc4c3)OC2=O)cc1` here?
The TGI was greater than 100 µM.

`COc1ccc(C(OCC2OC(n3cc(C)c(=O)[nH]c3=O)CC2n2cc(Cn3cc(I)c(=O)[nH]c3=O)nn2)(c2ccccc2)c2ccccc2)cc1` (centres undefined) was tested. Which TGI did it give?
The TGI was greater than 100 µM.

How did the TGI turn out when `O=S1(=O)NC(=NCc2c[nH]c3ccccc23)N(c2ccccc2)c2ccncc21` was run?
The TGI was greater than 100 µM.

`COc1ccc(CNc2nc(NCc3ccc(OC)c(OC)c3)nc(NC3CCCCC3)n2)cc1` was tested. Which TGI did it give?
Its TGI is 52.2 µM.

Which GI50 does the source give for `Cc1c2cnccc2c(C)c2c1c1ccccc1n2CCCN` here?
Its GI50 is 0.165 µM.

What about the TGI of the same compound?
Its TGI is 1.18 µM and 0.482 µM.

`O=C(CCC(=O)c1ccc(Cl)cc1)NO` was tested. Which TGI did it give?
The TGI was greater than 100 µM.

How did the TGI turn out when `COc1c(C)c(C/C=C(\C)CCCCO[Si](c2ccccc2)(c2ccccc2)C(C)(C)C)c(OC)c(OC)c1OC` was run?
Its TGI is 38.7 µM.

With `COc1ccc(C2c3cc4c(cc3OC(NNS(=O)(=O)c3ccc(C)cc3)C2C)OCO4)cc1` (centres undefined) as the compound, how does the TGI read?
The TGI was greater than 100 µM.

How did the TGI turn out when `C[C@@]12C[C@@H](c3ccccc3O1)N1CCCCSC1=N2` was run?
The TGI was greater than 100 µM.

How did the TGI turn out when `c1ccc(N=C2SC3=Nc4cccc5cccc(c45)N3C2=Nc2ccccc2)cc1` was run?
Its TGI is greater than 100 µM.

How did the TGI turn out when `Cc1nc(C(N)=S)sc1/C(CC(=O)C(=O)Nc1cccc2ccc(O)cc12)=N\NC(=O)c1ccncc1` was run?
Its TGI is greater than 100 µM.

For `Cc1cc(O)c2c(=O)c3ccccc3[nH]c2c1`, which TGI is on record?
Its TGI is greater than 100 µM.

With `Oc1cc2c3c(c1)c1cc4c(cc1c[n+]3CC2)OCO4` as the compound, how does the TGI read?
The TGI was 13.3 µM.

How did the TGI turn out when `Nc1cccc2cc(Cl)cnc12` was run?
The TGI was greater than 100 µM.

With `C=C1c2nc3ccccc3n2C=C(c2ccccc2)N1c1ccc([N+](=O)[O-])cc1` as the compound, how does the TGI read?
The TGI was 38.5 µM.

How did the TGI turn out when `Cc1ccccc1-n1c(=O)c2ncn(CCCl)c2n(-c2ccccc2C)c1=S` was run?
The TGI was greater than 100 µM.

system: OVCAR-3 ovarian; assay: inhibition of tumour cell growth, NCI panel, 48 h

Which TGI does the source give for `O=c1[nH][nH]c(=O)n1Cc1ccccc1Cn1c(=O)[nH][nH]c1=O` here?
Its TGI is greater than 100 µM.

`CCOC(=O)c1c2ccccc2n2c(N)c(C(N)=O)nnc12` was tested. Which TGI did it give?
The TGI was greater than 100 µM.

For `O=C(NNC(=O)c1ccccc1SSc1ccccc1C(=O)NNC(=O)c1ccccc1S)c1ccccc1S`, which TGI is on record?
Its TGI is greater than 100 µM.

For `CCOC(=O)C(NC(C)=O)(Nc1ccc(F)cc1)C(F)(F)F` (centres undefined), which TGI is on record?
Its TGI is greater than 100 µM.

`O=C1/C(=C/c2ccc(O)cc2)CC/C1=C\c1ccc(O)cc1` was tested. Which TGI did it give?
The TGI was greater than 100 µM.

For `CC(C)C1/C(=N/O)CC(c2ccccc2)N(N=O)C1c1ccccc1` (centres undefined), which TGI is on record?
The TGI was greater than 100 µM.

Which TGI does the source give for `COc1cc(/C=C2\S/C(=N/Nc3nc(-c4ccc(Br)cc4)cs3)NC2=O)cc(OC)c1OC` here?
Its TGI is 30.3 µM.

`COC(=O)[C@H]1CO[C@@H](C(C)(C)C)N1C(=O)N1C=CC(=O)C[C@@H]1C` was tested. Which TGI did it give?
The TGI was greater than 100 µM.

`CCC1(O)CC2CC(=O)OC2C1O` (centres undefined) was tested. Which TGI did it give?
Its TGI is greater than 100 µM.

How did the TGI turn out when `Cc1ccc(SCC(CSCCO)OCn2cnc3c2NC(N)=NC32OCCO2)cc1` (centres undefined) was run?
Its TGI is greater than 100 µM.

`Oc1cccc2c(Cl)ccnc12` was tested. Which TGI did it give?
The TGI was 3.19 µM.

With `N#CC1=C(N)N(c2ccccc2)C(c2ccco2)C1(C#N)C#N` (centres undefined) as the compound, how does the TGI read?
The TGI was 56.7 µM.

For `NC(=O)C(c1ccccc1)N1OC2C(=O)N(c3ccccc3)C(=O)C2C1c1c2ccccc2c(Cl)c2ccccc12` (centres undefined), which TGI is on record?
The TGI was greater than 100 µM.

With `CC(C)c1ccc(/C=C2/C=C(c3ccc4ccccc4c3)OC2=O)cc1` as the compound, how does the TGI read?
The TGI was greater than 100 µM.

With `COc1ccc(C(OCC2OC(n3cc(C)c(=O)[nH]c3=O)CC2n2cc(Cn3cc(I)c(=O)[nH]c3=O)nn2)(c2ccccc2)c2ccccc2)cc1` (centres undefined) as the compound, how does the TGI read?
The TGI was greater than 100 µM.

For `O=S1(=O)NC(=NCc2c[nH]c3ccccc23)N(c2ccccc2)c2ccncc21`, which TGI is on record?
Its TGI is greater than 100 µM.

`COc1ccc(CNc2nc(NCc3ccc(OC)c(OC)c3)nc(NC3CCCCC3)n2)cc1` was tested. Which TGI did it give?
Its TGI is greater than 100 µM.

Which GI50 does the source give for `Cc1c2cnccc2c(C)c2c1c1ccccc1n2CCCN` here?
Its GI50 is 0.721 µM and 0.251 µM.

And the TGI?
The TGI was 1.84 µM and 0.833 µM.

With `O=C(CCC(=O)c1ccc(Cl)cc1)NO` as the compound, how does the TGI read?
Its TGI is greater than 100 µM.

Which TGI does the source give for `COc1c(C)c(C/C=C(\C)CCCCO[Si](c2ccccc2)(c2ccccc2)C(C)(C)C)c(OC)c(OC)c1OC` here?
Its TGI is greater than 46.4 µM.

With `COc1ccc(C2c3cc4c(cc3OC(NNS(=O)(=O)c3ccc(C)cc3)C2C)OCO4)cc1` (centres undefined) as the compound, how does the TGI read?
Its TGI is greater than 100 µM.

How did the TGI turn out when `C[C@@]12C[C@@H](c3ccccc3O1)N1CCCCSC1=N2` was run?
The TGI was greater than 100 µM.

For `c1ccc(N=C2SC3=Nc4cccc5cccc(c45)N3C2=Nc2ccccc2)cc1`, which TGI is on record?
The TGI was greater than 100 µM.

With `Cc1nc(C(N)=S)sc1/C(CC(=O)C(=O)Nc1cccc2ccc(O)cc12)=N\NC(=O)c1ccncc1` as the compound, how does the TGI read?
Its TGI is greater than 100 µM.

Which TGI does the source give for `Cc1cc(O)c2c(=O)c3ccccc3[nH]c2c1` here?
The TGI was greater than 100 µM.

For `Oc1cc2c3c(c1)c1cc4c(cc1c[n+]3CC2)OCO4`, which TGI is on record?
Its TGI is greater than 50.9 µM.

For `Nc1cccc2cc(Cl)cnc12`, which TGI is on record?
The TGI was greater than 100 µM.

How did the TGI turn out when `C=C1c2nc3ccccc3n2C=C(c2ccccc2)N1c1ccc([N+](=O)[O-])cc1` was run?
Its TGI is 60.2 µM.

With `Cc1ccccc1-n1c(=O)c2ncn(CCCl)c2n(-c2ccccc2C)c1=S` as the compound, how does the TGI read?
Its TGI is greater than 100 µM.
